A short description of data set [1]: Cytotoxicity against African green monkey Vero cells assessed as reduction in cell viability after 48 hrs by MTT assay. To be noted: chlorocebus sabaeus. The class given is cell-based.
Data set [2] is described as follows: Cytotoxicity against human A549 cells assessed as reduction in cell viability after 48 hrs by MTT assay. The class given is cell-based. Background: Tetrazolium assays rely on reduction of a dye to a coloured formazan, in cell work by metabolically active cells.
A short description of data set [3]: Solubility of the compound in water. The class given is physicochemical.
Data set [4] deals with Junin virus. The class given is functional, organism-based. To be noted: Mammarenavirus juninense, IV4454, Vero, 48 h.
The nature of data set [5]: in vitro. To be noted: monkey, Vero cells.
The test system of data set [6] is Junin virus. The class given is functional, organism-based. To be noted: Mammarenavirus juninense, IV4454, A549, 48 h.
A short description of data set [7]: in vitro. To be noted: human, A549 cells.

SMILES strings stand for the structures. pEC50: −log10 of the molar value. Bounds are passed on as bounds.

As usually defined, the CC50 is the concentration giving 50% cytotoxicity. What is called solubility is the concentration that dissolves in the medium under given conditions. For orientation: pEC50 means the negative decadic logarithm of the EC50, by convention in mol/L. With `CC1(C)O[C@@H]2[C@H](O1)[C@@H](Cn1cc(COC[C@H]3OC(O)[C@H](O)[C@@H](O)[C@H]3O)nn1)O[C@H]2n1cc(COCC(COCc2cn([C@@H]3O[C@H](Cn4cc(COC[C@H]5OC(O)[C@H](O)[C@@H](O)[C@H]5O)nn4)[C@H]4OC(C)(C)O[C@H]43)nn2)(COCc2cn([C@@H]3O[C@H](Cn4cc(COC[C@H]5OC(O)[C@H](O)[C@@H](O)[C@H]5O)nn4)[C@H]4OC(C)(C)O[C@H]43)nn2)COCc2cn([C@@H]3O[C@H](Cn4cc(COC[C@H]5OC(O)[C@H](O)[C@@H](O)[C@H]5O)nn4)[C@H]4OC(C)(C)O[C@H]43)nn2)nn1` (stereo partly specified), the CC50 at 48 h in data set [1] and in data set [2] was more than 1000 µM throughout. The solubility in data set [3] was more than 100 mg/mL. For the same compound, the negative logarithm of the EC50 (pEC50) in the data set on Junin virus [4] is 3.93; in the data set on Junin virus [6], 3.92. Besides, the results for the selectivity ratio in “in vitro [5]” and in the data set “in vitro [7]” were more than 8.6 and more than 8.4, respectively.

In the case of `CCCCn1cc(COC[C@H]2OC(O)[C@H](O)[C@@H](O)[C@H]2O)nn1` (stereo partly specified), the CC50 at 48 h in data set [1] and in data set [2] was more than 1000 µM throughout. The compound further yielded a solubility in data set [3] of more than 100 mg/mL. Moreover, the pEC50 is 3.43 in the data set on Junin virus [4] and 3.95 in the data set on Junin virus [6]. Also, the figures for the selectivity ratio in the data set “in vitro [5]” and in the data set “in vitro [7]” were more than 2.7 and more than 8.9, respectively.

For `CC1(C)O[C@H]2[C@H](OCc3cn(CC(Cn4cc(CO[C@@H]5O[C@H](Cn6cc(COC[C@@H](O)[C@H](O)[C@H](O)[C@@H](O)CO)nn6)[C@H]6OC(C)(C)O[C@@H]56)nn4)(Cn4cc(CO[C@@H]5O[C@H](Cn6cc(COC[C@H](O)[C@@H](O)[C@@H](O)[C@H](O)CO)nn6)[C@H]6OC(C)(C)O[C@@H]56)nn4)Cn4cc(CO[C@@H]5O[C@H](Cn6cc(COC[C@H](O)[C@@H](O)[C@@H](O)[C@H](O)CO)nn6)[C@H]6OC(C)(C)O[C@@H]56)nn4)nn3)O[C@H](Cn3cc(COC[C@@H](O)[C@H](O)[C@H](O)[C@@H](O)CO)nn3)[C@H]2O1`, the CC50 at 48 h in data set [1] and in data set [2] was more than 1000 µM throughout. The solubility in data set [3] was more than 100 mg/mL. Moreover, the pEC50 was less than 3.30 in the data set on Junin virus [4] and 3.50 in the data set with Junin virus [6]. Also, the selectivity ratio in the data set “in vitro [7]” is more than 3.2.

Consider `OC1O[C@H](COCc2cn(CC(Cn3cc(COC[C@H]4OC(O)[C@H](O)[C@@H](O)[C@H]4O)nn3)(Cn3cc(COC[C@H]4OC(O)[C@H](O)[C@@H](O)[C@H]4O)nn3)Cn3cc(COC[C@H]4OC(O)[C@H](O)[C@@H](O)[C@H]4O)nn3)nn2)[C@H](O)[C@H](O)[C@H]1O` (stereo partly specified), for which the CC50 at 48 h in data set [1] and in data set [2] was more than 1000 µM throughout. Moreover, in data set [3], the solubility was more than 100 mg/mL. Moreover, the pEC50 in the data set with Junin virus [4] was 3.43; in the data set on Junin virus [6], 3.50. In addition, the selectivity ratio in “in vitro [5]” was more than 2.7; in the data set “in vitro [7]”, more than 3.2.

Turning to `CCCCn1cc(CO[C@@H]2O[C@H](Cn3cc(COC[C@@H](O)[C@H](O)[C@H](O)[C@@H](O)CO)nn3)[C@H]3OC(C)(C)O[C@@H]23)nn1`, the CC50 at 48 h in data set [1] and in data set [2] was more than 1000 µM in each case. In data set [3], this compound yielded a solubility of more than 100 mg/mL. Moreover, the pEC50 in the data set with Junin virus [4] is 3.68; with Junin virus [6], 3.41. Moreover, the selectivity ratio is more than 4.8 in “in vitro [5]” and more than 2.6 in “in vitro [7]”.

With `CCCCn1cc(CO[C@@H]2O[C@H](Cn3cc(COC[C@H]4OC(O)[C@H](O)[C@@H](O)[C@H]4O)nn3)[C@H]3OC(C)(C)O[C@@H]23)nn1` (stereo partly specified), the CC50 at 48 h in data set [1] and in data set [2] was more than 1000 µM in each case. The solubility in data set [3] was more than 100 mg/mL. In addition, the pEC50 was 4.66 with Junin virus [4] and 4.69 in the data set on Junin virus [6]. The selectivity ratio in “in vitro [5]” was more than 45.2; in “in vitro [7]” it was more than 48.5.

The values are drawn from ChEMBL document CHEMBL4330122, “Modified ribavirin analogues as antiviral agents against Junín virus” (Bioorg Med Chem Lett, 2019).
